Data taken from BindingDB's records for doi:10.1021/acs.jmedchem.8b00864 (2018).

target: 2-acylglycerol O-acyltransferase 2 (MOGAT2, Homo sapiens) (UniProt Q3SYC2); assay: Inhibition of recombinant human MGAT2
Sequence (Q3SYC2 whole entry, looked up): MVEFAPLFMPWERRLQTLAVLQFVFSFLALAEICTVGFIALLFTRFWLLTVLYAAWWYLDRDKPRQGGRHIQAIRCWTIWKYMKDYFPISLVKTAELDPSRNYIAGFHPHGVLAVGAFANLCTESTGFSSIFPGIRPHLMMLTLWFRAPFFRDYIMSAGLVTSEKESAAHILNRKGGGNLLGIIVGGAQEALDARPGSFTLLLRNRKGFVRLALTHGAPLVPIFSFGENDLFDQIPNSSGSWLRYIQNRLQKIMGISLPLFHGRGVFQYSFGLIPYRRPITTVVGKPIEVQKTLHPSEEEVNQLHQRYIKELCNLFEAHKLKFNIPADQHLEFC

Structure (SMILES) | IC50
O=C1N[C@@](c2ccc(OCCCC(F)(F)F)cc2F)(C(F)(F)F)CC(c2ncc(C3CC3)s2)=C1n1nn[nH]c1=O | 2 nM
CC(C)(C)c1cc(C(C)(C)C)nc(N2CCn3c(nnc3-c3ccc(OC(F)(F)F)cc3)C2)n1 | 19 nM
CCc1ccc(-c2cc(-c3ccc(OCCCCCC(F)(F)F)cc3C(F)(F)F)[nH]c(=O)c2-c2nn[nH]n2)s1 | 0.3 nM
O=C1N[C@@]2(CCc3cc(OCCCC(F)(F)F)ccc32)CC(c2cnc(C3CC3)s2)=C1c1noc(=O)[nH]1 | < 1 nM
Cc1ccc(C2=C(C(=O)Nc3ccc(-c4nnn[nH]4)cc3)C(=O)N[C@@](c3ccc(OCCCC(F)(F)F)cc3F)(C(F)(F)F)C2)cc1 | 7 nM

The remaining lines, values ahead:

IC50 | Structure (SMILES)
1.1 nM | O=C(CCNCC1COc2ccccc2O1)N1CCc2nc(SC3CCC3)n(-c3ccccc3)c(=O)c2C1 (configuration not stated)
56 nM | O=c1c2c(nc(SCc3cccnc3)n1-c1ccccc1)CCN(c1nc3cc(C(F)(F)F)ccc3[nH]1)C2
4 nM | CCOC(=O)CCc1ccc(CN2CC(C(=O)N3CCc4nc(SC5CCCCC5)n(-c5ccccc5)c(=O)c4C3)C2)cc1
0.64 nM | O=C(CNCCCCCOc1ccc(C(F)(F)F)cc1)N1CCc2nc(SC3CCC3)n(-c3ccccc3)c(=O)c2C1

target: 2-acylglycerol O-acyltransferase 2 (MOGAT2, Homo sapiens) (UniProt Q3SYC2); assay: Inhibition of recombinant human MGAT2 using 2-monooleoyl glycerol/[1-14C]-oleoyl CoA as substrate after 30 mins by liquid scintillation counting method

IC50 | Structure (SMILES)
0.38 nM | O=C(CCNC1Cc2ccccc2C1)N1CCc2nc(SC3CCC3)n(-c3ccccc3)c(=O)c2C1

target: 2-acylglycerol O-acyltransferase 2 (MOGAT2, Homo sapiens) (UniProt Q3SYC2); assay: Inhibition of recombinant human MGAT2 expressed in sf9 cells using 2-monooleoyl glycerol/[14C]-oleoyl CoA as substrate by microscintillation counting method

IC50 | Structure (SMILES)
58 nM | CC(C)(C)C1CCN(Cc2ccc([C@H](NS(C)(=O)=O)C(F)(F)F)cc2)CC1
3.8 nM | CS(=O)(=O)N[C@@H](c1ccc(CNC[C@H]2COc3cccnc3O2)cc1)C(F)(F)F
